Consider 8 compounds from patent publication US20260022142A1, “MACROCYCLIC IMMUNOMODULATORS” (Bristol-Myers Squibb Company, priority 2022, published 2026).

Structures are written as SMILES. Bridge positions count the residues as written; N and C are the ends. Square brackets hold non-standard residues; d marks the D form. Peptide text beside a SMILES is read from it. * marks the point of attachment. Phe(3-CF3) = N[C@@H](Cc1cccc(C(F)(F)F)c1)C(=O)O; Ala(morpholin-4-yl) = N[C@@H](CN1CCOCC1)C(=O)O; Phe(4-CONH2) = NC(=O)c1ccc(C[C@H](N)C(=O)O)cc1; Phe(4-COOH) = N[C@@H](Cc1ccc(C(=O)O)cc1)C(=O)O; Bip = N[C@@H](Cc1ccc(-c2ccccc2)cc1)C(=O)O; NH(CH2)14COOH = O=C(O)CCCCCCCCCCCCCCN*; Phe(3-Me) = Cc1cccc(C[C@H](N)C(=O)O)c1; NH(CH2)12COOH = O=C(O)CCCCCCCCCCCCN*; Val(3-OH) = CC(C)(O)[C@H](N)C(=O)O; 4Pal = N[C@@H](Cc1ccncc1)C(=O)O; Cha = N[C@@H](CC1CCCCC1)C(=O)O; PEG4 = NCCOCCOCCOCCOCCC(=O)O; Carboxymethyl = O=C(O)C*; Orn = NCCC[C@H](N)C(=O)O; Aun = NCCCCCCCCCCC(=O)O; Dab = NCC[C@H](N)C(=O)O; Abu = CC[C@H](N)C(=O)O

In the assay the target is T1, PD-1/PD-L1 interaction (PE-labeled human PD-L1-Ig binding to Jurkat cell line over-expressing human PD-1) (Homo sapiens, UniProt Q15116).
T1 construct: expressed in transfected cells; host or cells: Jurkat
T1 sequence (Q15116 25-288): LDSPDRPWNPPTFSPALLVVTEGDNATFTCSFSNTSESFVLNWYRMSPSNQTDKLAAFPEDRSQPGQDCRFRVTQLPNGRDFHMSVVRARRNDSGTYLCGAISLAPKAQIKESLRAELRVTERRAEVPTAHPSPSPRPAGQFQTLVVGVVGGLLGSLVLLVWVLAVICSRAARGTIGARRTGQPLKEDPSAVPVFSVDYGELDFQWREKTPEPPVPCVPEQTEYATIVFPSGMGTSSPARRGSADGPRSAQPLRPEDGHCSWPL
Briefly: Jurkat-PD-1 Cell Binding High-Content Screening Assay (CBA). In kind it is cell-based. The note with it: Jurkat cell line over-expressing human PD-1; PE-labeled PD-L1-Ig 20 nM final; read-out: Jurkat hPD1-PDL1 IC50. Summed up: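 First, compound is added to PD-1-expressing Jurkat cells in serum-containing DMEM and left 2 h at 37° C. Next, PE-conjugated PD-L1-Ig is introduced at 20 nM final concentration for 1 hour. Finally, cells are fixed in 4% paraformaldehyde with Hoechst 33342, washed and imaged.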
With `CC(C)C[C@H]1NC(=O)[C@H](CCCN)NC(=O)[C@H](Cc2ccc(C(=O)O)cc2)NC(=O)[C@H](Cc2ccc(-c3ccccc3)cc2)NC(=O)[C@H](Cc2ccc(C(=O)O)cc2)NC(=O)[C@H](Cc2cccc(C(F)(F)F)c2)NC(=O)[C@H](CC(=O)O)NC(=O)[C@H](Cc2ccc(OCC(=O)O)cc2)NC(=O)[C@H](CN2CCOCC2)NC(=O)CSC[C@@H](C(=O)N[C@@H](CCN)C(=O)NCCCCCCCCCCCCC(=O)O)NC(=O)[C@H](CC(=O)O)NC(=O)[C@H](C(C)(C)O)NC(=O)[C@H](CC2CCCCC2)NC(=O)[C@H](CCN)NC1=O` [Compound 2921] ({CH2CO}-[Ala(morpholin-4-yl)]Y(Carboxymethyl)D[Phe(3-CF3)][Phe(4-COOH)][Bip][Phe(4-COOH)][Orn][dL][Dab][Cha][Val(3-OH)]DC[Dab]-{NH(CH2)12COOH}; thioether N-14), the IC50 was 20.5 nM.
As for `CC(C)C[C@H]1NC(=O)[C@H](CCCN)NC(=O)[C@H](Cc2ccc(C(=O)O)cc2)NC(=O)[C@H](Cc2ccc(-c3ccccc3)cc2)NC(=O)[C@H](Cc2ccc(C(=O)O)cc2)NC(=O)[C@H](Cc2cccc(C(F)(F)F)c2)NC(=O)[C@H](CC(=O)O)NC(=O)[C@H](Cc2ccc(OCC(=O)O)cc2)NC(=O)[C@H](C)NC(=O)CSC[C@@H](C(=O)N[C@@H](CCN)C(=O)NCCCCCCCCCCCCCCC(=O)O)NC(=O)[C@H](Cc2c[nH]cn2)NC(=O)[C@H](C(C)(C)O)NC(=O)[C@H](CC2CCCCC2)NC(=O)[C@H](CCN)NC1=O` [Compound 2922] ({CH2CO}-AY(Carboxymethyl)D[Phe(3-CF3)][Phe(4-COOH)][Bip][Phe(4-COOH)][Orn][dL][Dab][Cha][Val(3-OH)]HC[Dab]-{NH(CH2)14COOH}; thioether N-14), the figure is 423 nM.
The same measure for `CC(C)C[C@H]1NC(=O)[C@H](CCCN)NC(=O)[C@H](Cc2ccc(C(=O)O)cc2)NC(=O)[C@H](Cc2ccc(-c3ccccc3)cc2)NC(=O)[C@H](Cc2ccc(C(=O)O)cc2)NC(=O)[C@H](Cc2cccc(C(F)(F)F)c2)NC(=O)[C@H](CC(=O)O)NC(=O)[C@H](Cc2ccc(OCC(=O)O)cc2)NC(=O)[C@H](C)NC(=O)CSC[C@@H](C(=O)N[C@@H](CCN)C(=O)NCCCCCCCCCCCCC(=O)O)NC(=O)[C@H](Cc2c[nH]cn2)NC(=O)[C@H](C(C)(C)O)NC(=O)[C@H](CC2CCCCC2)NC(=O)[C@H](CCN)NC1=O` [Compound 2923] ({CH2CO}-AY(Carboxymethyl)D[Phe(3-CF3)][Phe(4-COOH)][Bip][Phe(4-COOH)][Orn][dL][Dab][Cha][Val(3-OH)]HC[Dab]-{NH(CH2)12COOH}; thioether N-14): 22.5 nM; for `Cc1cccc(C[C@@H]2NC(=O)[C@H](CC(=O)O)NC(=O)[C@H](Cc3ccc(OCC(=O)O)cc3)NC(=O)[C@H](Cc3ccncc3)NC(=O)CSC[C@@H](C(=O)N[C@@H](CCN)C(=O)NCCCCCCCCCCC(=O)O)NC(=O)[C@H]([C@@H](C)O)NC(=O)[C@H](C(C)C)NC(=O)[C@H](CC3CCCCC3)NC(=O)[C@H](CCN)NC(=O)[C@@H](CC(C)C)NC(=O)[C@H](CCCN)NC(=O)[C@H](Cc3ccc(OCC(=O)O)cc3)NC(=O)[C@H](Cc3ccc(-c4ccccc4)cc3)NC(=O)[C@H](Cc3ccc(OCC(=O)O)cc3)NC2=O)c1` [Compound 2924] ({CH2CO}-[4Pal]Y(Carboxymethyl)D[Phe(3-Me)]Y(Carboxymethyl)[Bip]Y(Carboxymethyl)[Orn][dL][Dab][Cha]VTC[Dab][Aun]-OH; thioether N-14): 16.8 nM.
The same measure for `Cc1cccc(C[C@@H]2NC(=O)[C@H](CC(=O)O)NC(=O)[C@H](Cc3ccc(OCC(=O)O)cc3)NC(=O)[C@H](Cc3ccc(C(N)=O)cc3)NC(=O)CSC[C@@H](C(=O)N[C@@H](CCN)C(=O)NCCCCCCCCCCC(=O)O)NC(=O)[C@H]([C@@H](C)O)NC(=O)[C@H](C(C)C)NC(=O)[C@H](CC3CCCCC3)NC(=O)[C@H](CCN)NC(=O)[C@@H](CC(C)C)NC(=O)[C@H](CCCN)NC(=O)[C@H](Cc3ccc(OCC(=O)O)cc3)NC(=O)[C@H](Cc3ccc(-c4ccccc4)cc3)NC(=O)[C@H](Cc3ccc(OCC(=O)O)cc3)NC2=O)c1` [Compound 2925] ({CH2CO}-[Phe(4-CONH2)]Y(Carboxymethyl)D[Phe(3-Me)]Y(Carboxymethyl)[Bip]Y(Carboxymethyl)[Orn][dL][Dab][Cha]VTC[Dab][Aun]-OH; thioether N-14): 36.6 nM; for `CC[C@@H]1NC(=O)CSC[C@@H](C(=O)N[C@@H](CCN)C(=O)NCCOCCOCCOCCOCCC(=O)NCCCCCCCCCCCCC(=O)O)NC(=O)[C@H](Cc2c[nH]cn2)NC(=O)[C@H](C(C)(C)O)NC(=O)[C@H](CC2CCCCC2)NC(=O)[C@H](CCN)NC(=O)[C@@H](CC(C)C)NC(=O)[C@H](CCCN)NC(=O)[C@H](Cc2ccc(C(=O)O)cc2)NC(=O)[C@H](Cc2ccc(-c3ccccc3)cc2)NC(=O)[C@H](Cc2ccc(C(=O)O)cc2)NC(=O)[C@H](Cc2cccc(C(F)(F)F)c2)NC(=O)[C@H](CC(=O)O)NC(=O)[C@H](Cc2ccc(OCC(=O)O)cc2)NC1=O` [Compound 2926] ({CH2CO}-[Abu]Y(Carboxymethyl)D[Phe(3-CF3)][Phe(4-COOH)][Bip][Phe(4-COOH)][Orn][dL][Dab][Cha][Val(3-OH)]HC[Dab][PEG4]-{NH(CH2)12COOH}; thioether N-14): 32.9 nM.
In the case of `CC[C@@H]1NC(=O)CSC[C@@H](C(=O)N[C@@H](CCN)C(=O)NCCOCCOCCOCCOCCC(=O)NCCCCCCCCCCCCCCC(=O)O)NC(=O)[C@H](Cc2c[nH]cn2)NC(=O)[C@H](C(C)(C)O)NC(=O)[C@H](CC2CCCCC2)NC(=O)[C@H](CCN)NC(=O)[C@@H](CC(C)C)NC(=O)[C@H](CCCN)NC(=O)[C@H](Cc2ccc(C(=O)O)cc2)NC(=O)[C@H](Cc2ccc(-c3ccccc3)cc2)NC(=O)[C@H](Cc2ccc(C(=O)O)cc2)NC(=O)[C@H](Cc2cccc(C(F)(F)F)c2)NC(=O)[C@H](CC(=O)O)NC(=O)[C@H](Cc2ccc(OCC(=O)O)cc2)NC1=O` [Compound 2927] ({CH2CO}-[Abu]Y(Carboxymethyl)D[Phe(3-CF3)][Phe(4-COOH)][Bip][Phe(4-COOH)][Orn][dL][Dab][Cha][Val(3-OH)]HC[Dab][PEG4]-{NH(CH2)14COOH}; thioether N-14), the concentration for half-maximal inhibition (IC50) worked out at 244 nM.
As for `CC[C@@H]1NC(=O)CSC[C@@H](C(=O)N[C@@H](CCN)C(=O)NCCCCCCCCCCCCC(=O)O)NC(=O)[C@H](Cc2c[nH]cn2)NC(=O)[C@H](C(C)(C)O)NC(=O)[C@H](CC2CCCCC2)NC(=O)[C@H](CCN)NC(=O)[C@@H](CC(C)C)NC(=O)[C@H](CCCN)NC(=O)[C@H](Cc2ccc(C(=O)O)cc2)NC(=O)[C@H](Cc2ccc(-c3ccccc3)cc2)NC(=O)[C@H](Cc2ccc(C(=O)O)cc2)NC(=O)[C@H](Cc2cccc(C(F)(F)F)c2)NC(=O)[C@H](CC(=O)O)NC(=O)[C@H](Cc2ccc(OCC(=O)O)cc2)NC1=O` [Compound 2928] ({CH2CO}-[Abu]Y(Carboxymethyl)D[Phe(3-CF3)][Phe(4-COOH)][Bip][Phe(4-COOH)][Orn][dL][Dab][Cha][Val(3-OH)]HC[Dab]-{NH(CH2)12COOH}; thioether N-14), the figure is 44.8 nM.

The IC50 is the concentration needed to halve the response being measured.
